Several values for one entry are separate records, joined by “and”; a condition that tells them apart may be missing. Identical values can stand only once. Marks after values point to notes of the source that are not given here.
What was measured:
[1] = system: mice; assay: Formalin-induced paw-licking test; details: 5 mg/kg i.p.
Procedure: Swiss albino mice of both sexes with an average weight of 30 to 35 g were obtained from the respective section of NIH (National Institute of Health) Islamabad, Pakistan.
The early phase was initially five minutes, while the late phase was 15-30 min. In both the phases, the mice were under observation for licking. As per the protocols, naloxone (2 mg/kg), indomethacin (10 mg/kg) and morphine (5 mg/kg) were used [28].

[2] = system: mice; assay: Hot plate test; set-up: species or system Swiss albino mice; details: mouse, in vivo

SMILES: CN1CC[C@]23c4c5ccc(O)c4O[C@H]2[C@@H](O)C=C[C@H]3[C@H]1C5 [Morphine]
- Percent (%) inhibition, 0–5 min ([1]; early phase): 88.64 *** %
- Time spent (licking) 0–5 min ([1]; early phase): 6.50 ± 0.78 s
- Percent (%) inhibition, 0–5 min ([1]; early phase, listed as morphine): 88.64%
- Percent (%) inhibition, 15–30 min ([1]; late phase): 93.81 *** %
- Time spent (licking) 15–30 min ([1]; late phase): 4.83 ± 0.62 s
- Percent (%) inhibition, 15–30 min ([1]; late phase, listed as morphine): 93.81%
- Reaction time on hot plate [2]: 12.88 ± 0.26 min and 12.31 ± 0.62 min and 11.86 ± 0.87 min

Source: PMC9268591, “Anti-Inflammatory, Analgesic and Antioxidant Potential of New (2S,3S)-2-(4-isopropylbenzyl)-2-methyl-4-nitro-3-phenylbutanals and Their Corresponding Carboxylic Acids through In Vitro, In Silico and In Vivo Studies” (Molecules, 2022)
